Laboratory results reported in patent US4371464A, “Dipeptide sweetener” (Stamicarbon, B.V., priority 1980, dated 1983).

Experiment: organoleptic research (sweetness compared with sucrose)
Conditions: reference sucrose

SMILES: COC(=O)[C@@H](NC(=O)[C@H](CC(=O)O)NC(=O)NC=O)c1ccccc1 [II, N-(N'-formyl)-carbamyl-L-alpha-aspartyl-L-phenylglycinemethylester]
- sweetness relative to sucrose: 200 times sweeter than sucrose
